SMILES strings stand for the structures. Structures can show the parent of a compound that is named as a salt.

The values that follow come from patent US20230128815A1, “ADJUVANT COMPOUNDS, SALT FORMS, AND FORMULATIONS” (ADJUVANCE TECHNOLOGIES, INC., priority 2020, published 2023).

Data set [1] in a line: Dynamic vapor sorption (DVS) / humidity-dependent form stability. In kind it is physicochemical. The procedure:
Automated vapor sorption (VS) data were collected on a Surface Measurement System DVS Intrinsic instrument. Samples were not dried prior to analysis. Sorption and desorption data were collected over a range from 5% to 95% RH at 10% RH increments under a nitrogen purge. The equilibrium criterion used for analysis was less than 0.0100% weight change in 5 minutes with a maximum equilibration time of 3 hours. Data were not corrected for the initial moisture content of the samples.

The nature of data set [2]: Solubility in water. In kind it is physicochemical.
Data set [3] can be described thus: TQL-1055 choline salt and free acid ethanol solubility. As to conditions: 100% ethanol, 37 °C, organic solvent or mixture, thermodynamic from solid, solubility in 100% ethanol, vortex mixed, sonicated at 37° C. for five minutes. It is filed as physicochemical. On the procedure: An experiment was conducted to determine the solubility of TQL-1055 choline salt and TQL-1055 free acid in ethanol. Several samples were prepared, each containing either TQL-1055 choline salt or TQL-1055 free acid dissolved in a 100% ethanol solution at a concentration of 4 mg/ml. All samples were mixed using a vortex mixer and subsequently sonicated at 37° C. for five minutes. Neither the TQL-1055 choline salt nor the TQL-1055 free acid were fully dissolved at 4 mg/ml. Samples were then diluted to 3.5 mg/ml, 3 mg/ml, 2.5 mg/ml, or 2 mg/ml and re-sonicated. As depicted in FIGS. 16-18, TQL-1055 choline salt was completely dissolved at a concentration of 3 mg/ml, whereas TQL-1055 free acid was completely dissolved at a concentration of 2 mg/ml. Accordingly, TQL-1055 choline salt is soluble in 100% ethanol up to concentrations of approximately 3 mg/ml, whereas TQL-1055 free acid is soluble in 100% ethanol up to concentrations of approximately 2 mg/ml.

For data set [4] the following is noted: compared to QS-21; cited from earlier work.
The mark [5] stands for this setting: from 5 to 65% relative humidity.

Take `CC1O[C@@H](OC2C(O)[C@@H](NC(=O)CCCCCCCCCCC(=O)O)C(CO)O[C@H]2OC(=O)[C@]23CCC(C)(C)CC2C2=CCC4C5(C)CC[C@H](O)C(C)(C=O)C5CCC4(C)C2(C)CC3O)C(O)C(O)[C@H]1O[C@@H]1OC[C@@H](O)C(O)C1O` (some centres unmarked) [Form A]: in data set [1] (above 65% up to 95% relative humidity), the “DVS additional weight gain” value is 14%. Besides, in data set [1] (setting [5]), the DVS weight gain stood at 5% and the “water gain equivalent to DVS weight gain” value is reported as around 3.5 mol/mol. Also, in data set [1] (from 95 to 5% relative humidity), the “DVS weight loss on desorption” value came out at 19%. For the same molecule, the “relative humidity above which the form converts to higher hydrate Choline Material B” value in data set [1] (relative humidity) is given as “above 65%”. For the same molecule, the solubility (as a rule, how much of the substance goes into solution per volume) in data set [2] was above 6000 µg/mL.
For the molecule `CC1O[C@@H](OC2C(O)[C@@H](NC(=O)CCCCCCCCCCC(=O)O)C(CO)O[C@H]2OC(=O)[C@]23CCC(C)(C)CC2C2=CCC4C5(C)CC[C@H](O)C(C)(C=O)C5CCC4(C)C2(C)CC3O)C(O)C(O)[C@H]1O[C@@H]1OC[C@@H](O)C(O)C1O` (some centres unmarked) [TQL-1055 choline salt], the solubility at 5 min in data set [3] is around 3000 µg/mL.
On to `CC1O[C@@H](OC2C(O)[C@@H](NC(=O)CCCCCCCCCCC(=O)O)C(CO)O[C@H]2OC(=O)[C@]23CCC(C)(C)CC2C2=CCC4C5(C)CC[C@H](O)[C@](C)(C=O)[C@@H]5CC[C@]4(C)[C@]2(C)CC3O)C(O)C(O)[C@H]1O[C@@H]1OC[C@@H](O)C(O)C1O` (some centres unmarked) [Compound I-4], for which, in data set [3], the solubility at 5 min was around 2000 µg/mL. In addition, in data set [4], the “efficacy as compared to the natural product” value was “improved efficacy” and the “toxicity as compared to the natural product” value is given as “reduced toxicity”. Moreover, in data set [2] (physiological pH), the “solubility in water at physiological pH” value is given as “poor solubility”.
